Reference: ChEMBL document CHEMBL1150771, “Synthesis and potency of novel uracil nucleotides and derivatives as P2Y2 and P2Y6 receptor agonists” (Bioorg Med Chem, 2008)
pEC50: −log10 of the molar value.

Key:
P2Y purinoceptor 6 = P2Y purinoceptor 6 (Homo sapiens, UniProt Q15077); assay: Agonist activity at human P2Y6 receptor expressed in human 1321N1 cells assessed as [3H]inositol phosphate accumulation by scintillation proximity assay; type: functional, cell-based
P2Y purinoceptor 2 = P2Y purinoceptor 2 (Homo sapiens, UniProt P41231); assay: Agonist activity at human P2Y2 receptor expressed in human 1321N1 cells assessed as [3H]inositol phosphate accumulation by scintillation proximity assay; type: functional, cell-based
P2Y purinoceptor 4 = P2Y purinoceptor 4 (Homo sapiens, UniProt P51582); assay: Agonist activity at human P2Y4 receptor expressed in human 1321N1 cells assessed as [3H]inositol phosphate accumulation by scintillation proximity assay; type: functional, cell-based
Homo sapiens = organism: Homo sapiens; assay: Selectivity for human P2Y2 receptor over human P2Y4 receptor

Chain of P2Y purinoceptor 4 (P51582 whole entry): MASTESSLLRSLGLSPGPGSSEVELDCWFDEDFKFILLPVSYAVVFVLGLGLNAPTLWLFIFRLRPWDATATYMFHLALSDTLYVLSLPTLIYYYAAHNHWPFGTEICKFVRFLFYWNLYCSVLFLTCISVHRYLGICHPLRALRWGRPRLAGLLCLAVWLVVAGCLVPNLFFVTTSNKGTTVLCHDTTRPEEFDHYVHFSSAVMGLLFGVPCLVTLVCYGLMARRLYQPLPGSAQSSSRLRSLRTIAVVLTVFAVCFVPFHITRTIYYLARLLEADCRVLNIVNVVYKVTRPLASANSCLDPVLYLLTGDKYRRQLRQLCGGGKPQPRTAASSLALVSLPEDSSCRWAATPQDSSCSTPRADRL
Chain of P2Y purinoceptor 2 (P41231 whole entry): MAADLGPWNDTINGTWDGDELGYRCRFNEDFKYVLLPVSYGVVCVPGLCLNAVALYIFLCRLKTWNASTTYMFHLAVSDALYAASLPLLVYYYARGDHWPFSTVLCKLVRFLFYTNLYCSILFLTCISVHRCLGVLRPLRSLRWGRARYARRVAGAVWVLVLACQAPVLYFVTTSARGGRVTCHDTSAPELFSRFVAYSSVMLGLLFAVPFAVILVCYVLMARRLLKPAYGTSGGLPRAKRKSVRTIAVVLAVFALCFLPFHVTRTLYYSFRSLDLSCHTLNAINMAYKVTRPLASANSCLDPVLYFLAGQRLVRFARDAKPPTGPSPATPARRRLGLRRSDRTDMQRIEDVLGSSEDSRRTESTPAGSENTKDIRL
Chain of P2Y purinoceptor 6 (Q15077 whole entry): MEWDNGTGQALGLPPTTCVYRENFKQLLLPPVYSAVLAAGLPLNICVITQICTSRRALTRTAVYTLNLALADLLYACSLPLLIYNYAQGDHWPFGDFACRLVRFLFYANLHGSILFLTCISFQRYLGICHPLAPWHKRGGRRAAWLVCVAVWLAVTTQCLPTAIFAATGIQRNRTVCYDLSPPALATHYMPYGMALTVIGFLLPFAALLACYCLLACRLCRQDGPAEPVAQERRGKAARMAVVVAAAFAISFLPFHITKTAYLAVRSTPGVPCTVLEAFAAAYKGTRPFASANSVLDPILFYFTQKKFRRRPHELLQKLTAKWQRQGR

Row | pEC50 (P2Y purinoceptor 6) | pEC50 (P2Y purinoceptor 2) | pEC50 (P2Y purinoceptor 4) | Ratio EC50 (Homo sapiens) | SMILES
1 | < 5.00 | 5.60 | – | – | O=c1ccn([C@@H]2O[C@H](COP(=O)(O)OP(=O)(O)C(Cl)(Cl)P(=O)(O)O)[C@@H](O)[C@H]2O)c(=S)[nH]1
2 | 6.21 | – | – | – | Nc1cn([C@@H]2O[C@H](COP(=O)(O)OP(=O)(O)O)[C@@H](O)[C@H]2O)c(=O)[nH]c1=O
3 | – | 6.85 | 5.10 | – | O=c1ccn([C@@H]2O[C@H](COP(=O)(O)OP(=O)(O)OP(=O)(O)O)[C@@H](O)[C@@H]2O)c(=S)[nH]1
4 | 5.09 | 5.31 | 5.75 | – | O=c1ccn([C@@H]2O[C@H](COP(=O)(O)OP(=O)(O)OP(=O)(O)OP(=O)(O)O[C@H]3O[C@H](CO)[C@H](O)[C@H](O)[C@H]3O)[C@@H](O)[C@H]2O)c(=O)[nH]1
5 | 5.11 | 6.52 | 5.69 | – | O=c1ccn([C@@H]2O[C@H](COP(=O)(O)OP(=O)(O)OP(=O)(O)OP(=O)(O)O[C@H]3O[C@H](CO)[C@@H](O)[C@H](O)[C@H]3O)[C@@H](O)[C@H]2O)c(=O)[nH]1
6 | 5.33 | – | – | – | NC(=O)N[C@@H]1[C@H](O)[C@@H](COP(=O)(O)OP(=O)(O)O)O[C@H]1n1ccc(=O)[nH]c1=O
7 | 6.02 | 6.85 | 6.85 | – | Nc1ccn([C@H]2C[C@H](O)[C@@H](COP(=O)(O)OP(=O)(O)OP(=O)(O)OP(=O)(O)OC[C@H]3O[C@@H](n4ccc(=O)[nH]c4=O)[C@H](O)[C@@H]3O)O2)c(=O)n1 [DENUFOSOL]
8 | < 5.00 | 6.04 | 5.27 | – | CSc1ccn([C@@H]2O[C@H](COP(=O)(O)OP(=O)(O)OP(=O)(O)O)[C@@H](O)[C@H]2O)c(=S)n1
9 | 6.18 | – | – | – | O=c1ccn([C@@H]2O[C@H](COP(=O)(O)CP(=O)(O)O)[C@@H](O)[C@H]2O)c(=O)[nH]1
10 | 5.09 | 5.73 | 5.95 | – | O=c1ccn([C@@H]2O[C@H](COP(=O)(O)OP(=O)(O)OP(=O)(O)OP(=O)(O)OCC(O)CO)[C@@H](O)[C@H]2O)c(=O)[nH]1 (stereo not given in full)
11 | – | 5.11 | – | – | O=c1ccn([C@@H]2O[C@H](COP(=O)(O)OP(=O)(O)C(Cl)(Cl)P(=O)(O)OP(=O)(O)OC[C@H]3O[C@@H](n4ccc(=O)[nH]c4=O)[C@H](O)[C@@H]3O)[C@@H](O)[C@H]2O)c(=O)[nH]1
12 | – | 5.48 | 5.20 | – | O=c1ccn([C@@H]2O[C@H](COP(=O)(O)OP(=O)(O)OP(=O)(O)OP(=O)(O)OC[C@@H]3O[C@@](O)(CO)[C@H](O)[C@H]3O)[C@@H](O)[C@H]2O)c(=O)[nH]1
13 | 5.29 | 5.79 | 5.09 | – | O=c1ccn([C@@H]2O[C@H](COP(=O)(O)OP(=O)(O)C(F)(F)P(=O)(O)O)[C@@H](O)[C@H]2O)c(=S)[nH]1
14 | 5.12 | 5.58 | 5.33 | – | O=c1ccn([C@@H]2O[C@H](COP(=O)(O)OP(=O)(O)OP(=O)(O)OP(=O)(O)O)[C@@H](O)[C@H]2O)c(=O)[nH]1
15 | < 5.00 | 5.76 | 5.33 | – | NC(=O)N[C@@H]1[C@H](O)[C@@H](COP(=O)(O)OP(=O)(O)OP(=O)(O)O)O[C@H]1n1ccc(=O)[nH]c1=O
16 | 5.26 | 5.00 | – | – | O=c1ccn([C@@H]2O[C@H](COP(=O)(O)OP(=O)(O)OP(=O)(O)OC[C@H]3O[C@@H](n4cc(I)c(=O)[nH]c4=O)[C@H](O)[C@@H]3O)[C@H]3OC(Cc4ccccc4)O[C@H]32)c(=O)[nH]1 (stereo not given in full)
17 | – | 5.84 | 5.90 | – | C[C@@]1(O)[C@H](O)[C@@H](COP(=O)(O)OP(=O)(O)OP(=O)(O)O)O[C@H]1n1ccc(=O)[nH]c1=O
18 | 5.13 | 6.24 | 5.28 | – | O=c1ccn([C@@H]2O[C@H](COP(=O)(O)OP(=O)(O)OP(=O)(O)OP(=O)(O)OP(=O)(O)O)[C@@H](O)[C@H]2O)c(=S)[nH]1
19 | 5.98 | 7.10 | 6.15 | 9 | Nc1ccn([C@H]2C[C@H](O)[C@@H](COP(=O)(O)OP(=O)(O)OP(=O)(O)OP(=O)(O)OC[C@H]3O[C@@H](n4ccc(=O)[nH]c4=S)[C@H](O)[C@@H]3O)O2)c(=O)n1
20 | 5.99 | 6.85 | 6.27 | – | Nc1nc2c(ncn2[C@H]2C[C@H](O)[C@@H](COP(=O)(O)OP(=O)(O)OP(=O)(O)OP(=O)(O)OC[C@H]3O[C@@H](n4ccc(=O)[nH]c4=O)[C@H](O)[C@@H]3O)O2)c(=O)[nH]1
21 | 5.17 | 6.22 | 5.26 | – | O=c1ccn([C@@H]2O[C@H](COP(=O)(O)OP(=O)(O)OP(=O)(O)OP(=O)(O)O)[C@@H](O)[C@H]2O)c(=S)[nH]1
22 | 5.19 | 7.15 | 6.55 | – | O=c1[nH]c(=S)ccn1[C@@H]1O[C@H](COP(=O)(O)OP(=O)(O)OP(=O)(O)OP(=O)(O)O)[C@@H](O)[C@H]1O
23 | 5.69 | 7.52 | 7.10 | – | O=c1[nH]c(=S)ccn1[C@@H]1O[C@H](COP(=O)(O)OP(=O)(O)OP(=O)(O)OP(=O)(O)OC[C@H]2O[C@@H](n3ccc(=S)[nH]c3=O)[C@H](O)[C@@H]2O)[C@@H](O)[C@H]1O
24 | 6.57 | 5.88 | 6.06 | – | O=c1ccn([C@@H]2O[C@H](COP(=O)(O)OP(=O)(O)OP(=O)(O)OC[C@H]3O[C@@H](n4ccc(=O)[nH]c4=O)[C@H](O)[C@@H]3O)[C@@H](O)[C@H]2O)c(=O)[nH]1

Row | SMILES | pEC50 (P2Y purinoceptor 6) | pEC50 (P2Y purinoceptor 2) | pEC50 (P2Y purinoceptor 4) | Ratio EC50 (Homo sapiens)
25 | O=c1ccn([C@@H]2O[C@H](COP(=O)(O)OP(=O)(O)OP(=O)(O)OP(=O)(O)OC[C@@H]3OC(O)[C@@H](O)[C@H]3O)[C@@H](O)[C@H]2O)c(=O)[nH]1 (stereo not given in full) | < 5.00 | 5.73 | 5.32 | –
26 | O=c1ccn([C@@H]2O[C@H](COP(=O)(O)OP(=O)(O)OP(=O)(O)OP(=O)(O)OC[C@H]3OC(O)C[C@@H](O)[C@@H]3O)[C@@H](O)[C@H]2O)c(=O)[nH]1 (stereo not given in full) | < 5.00 | 5.45 | 5.36 | –
27 | O=c1ccn([C@@H]2O[C@H](COP(=O)(O)OP(=O)(O)C(F)(F)P(=O)(O)OP(=O)(O)OC[C@H]3O[C@@H](n4ccc(=O)[nH]c4=O)[C@H](O)[C@@H]3O)[C@@H](O)[C@H]2O)c(=O)[nH]1 | < 5.00 | 5.64 | < 5.00 | –
28 | N#CCCOP(=O)(O)OP(=O)(O)OP(=O)(O)OP(=O)(O)OC[C@H]1O[C@@H](n2ccc(=O)[nH]c2=O)[C@H](O)[C@@H]1O | < 5.00 | 5.77 | 5.71 | –
29 | COP(=O)(O)OP(=O)(O)OP(=O)(O)OP(=O)(O)OC[C@H]1O[C@@H](n2ccc(=O)[nH]c2=O)[C@H](O)[C@@H]1O | < 5.00 | 5.40 | 5.57 | –
30 | O=c1ccn([C@@H]2O[C@H](COP(=O)(O)OP(=O)(O)OP(=O)(O)OP(=O)(O)Oc3ccccc3)[C@@H](O)[C@H]2O)c(=O)[nH]1 | – | 5.72 | – | –
31 | O=c1ccn([C@@H]2O[C@H](COP(=O)(O)OP(=O)(O)OP(=O)(O)OP(=O)(O)OC[C@H]3OC(O)[C@@H](O)[C@@H](O)[C@@H]3O)[C@@H](O)[C@H]2O)c(=O)[nH]1 (stereo not given in full) | < 5.00 | < 5.00 | < 5.00 | –
32 | O=c1ccn([C@@H]2O[C@H](COP(=O)(O)OP(=O)(O)OP(=O)(O)O)[C@@H](O)[C@H]2O)c(=O)[nH]1 [URIDINE TRIPHOSPHATE] | < 5.00 | 7.22 | 7.05 | –
33 | O=c1ccn([C@@H]2O[C@H](COP(=O)(O)OP(=O)(O)OP(=O)(O)OP(=O)(O)OC3CCCCC3)[C@@H](O)[C@H]2O)c(=O)[nH]1 | < 5.00 | 5.23 | < 5.00 | –
